Source: publication PMC11575396, “Activity and cryo-EM structure of the polymerase domain of the human norovirus ProPol precursor” (Journal of Virology, 2024)
Structures can show the parent of a compound that is named as a salt. Where two headings read alike, the source gives them in different places. Marks after values point to notes of the source that are not given here.

Key:
[1] = biological target: T1, GII ProPol (Norovirus Hu/GII.4/Sydney/NSW0514/2012/AU, UniProt K4L8Z7, E1189A); test: Steady-state kinetics of de novo polymerase activity (PicoGreen); format: biochemical, Human norovirus GII.4 Sydney 2012
[2] = biological target: T2, GII Pol (Norovirus Hu/GII.4/Sydney/NSW0514/2012/AU, UniProt K4L8Z7); test: as above; format: biochemical, Human norovirus GII.4 Sydney 2012; settings: (95% CI)
Method: (§1) De novo polymerase activity was measured by monitoring the formation of dsRNA from a single-stranded homopolymeric RNA template using PicoGreen as described previously ([69]). Optimal pH (range of 7.0–8.0), concentrations of MnCl2 (2.5 mM), and DTT (5 mM) for HuNV were previously established ([17], [52]). Concentrations of NaCl in the final polymerase reaction were maintained below 10 mM ([17]).
(§2) Standard reactions were performed in 25 µL, containing 5 mM DTT, 2.5 mM MnCl2, 20 ng/µL RNA template, 0.5 mM NTP in 20 mM Tris pH 7.5. Reactions were initiated with the indicated concentration of enzyme and allowed to proceed for a set period at 37°C before being terminated with 10 mM EDTA. PicoGreen (1:350 dilution) (Invitrogen, Waltham, MA, USA) was added to bind the dsRNA, and fluorescence was measured on a Varioskan Flash (Thermo Fisher Scientific, Waltham, MA, USA) plate reader with excitation at 480 nm and emission at 520 nm.
(§3) Kinetics of nucleotide incorporation by polymerase proteins was analyzed by titrating NTP concentration under standard reaction conditions for the linear time period of the enzyme. Kinetics of RNA template utilization was analyzed in the same manner but with titration of the homopolymeric template. The velocity of the reaction against substrate concentration was plotted, and the kinetic parameters were determined by non-linear regression using the Michaelis-Menten model in GraphPad Prism version 9.2.0 (La Jolla, CA, USA). All enzyme kinetics was performed with three independent preparations of protein, with triplicate wells for each replicate.

[3] = biological target: T1, GII ProPol; test: as above; format: biochemical, Human norovirus GII.4 Sydney 2012; settings: (95% CI)
Method: as §1, §2, §3

[4] = biological target: T3, GI Pol (Southampton virus, UniProt Q04544); test: as above; format: biochemical, Human norovirus GI Southampton; settings: GI Pol 75 nM, (95% CI)
Method: as §1, §2, §3

[5] = biological target: T4, GI ProPol (Southampton virus, UniProt Q04544, E1280A); test: as above; format: biochemical, Human norovirus GI Southampton; settings: GI ProPol 250 nM, (95% CI)
Method: as §1, §2, §3

[6] = biological target: T2, GII Pol; test: biochemical; settings: for IC50: read-out: IC50 polymerase activity
[7] = biological target: T1, GII ProPol; test: biochemical; design: species or system Human norovirus GII.4 Sydney 2012
[8] = system: GII Pro; test: FRET protease assay; format: biochemical, Human norovirus GII.4 Sydney 2012; settings: normalized to 0-µM inhibitor control
Excerpt: (§4) A fluorescent resonance energy transfer assay was used to measure the activities of Pro and ProPol as described in reference ([46]). The peptide substrate, 5(6)-carboxyfluorescein (FAM)-[…]-Dabcyl utilized in reactions, was based on the NS1-2/NS3 cleavage site of HuNV GII.4 Sydney 2012, and the scissile bond is shown in bold.

[9] = biological target: T1, GII ProPol; test: FRET protease assay; format: biochemical, Human norovirus GII.4 Sydney 2012
Excerpt: as §4

[10] = system: norovirus Pro; design: method as in PMID 32321856, PMID 38005879; settings: read-out: IC50 protease activity; cited from earlier work
[11] = biological target: T3, GI Pol; test: De novo polymerase inhibition assay (PicoGreen dsRNA formation); format: biochemical
[12] = biological target: T4, GI ProPol; test: as above; format: biochemical, Human norovirus GI Southampton
[13] = system: GII Pol; design: method as in PMID 24316032, PMID 31804593, PMID 30584800; settings: read-out: IC50 polymerase; cited from earlier work
[14] = GII ProPol 1 µM, ATP 0 to 2000 µM, 80 ng/µL poly(U), (95% CI)
[15] = GTP 0 to 1,000 µM, 20 ng/µL poly(C)
[16] = 0, 3 and 30 µM, poly(C) template
[17] = GII ProPol 2 µM, poly(A) 0 to 400 ng/µL, 0.5 mM UTP, 60 min
[18] = GII Pol 35 nM, poly(C) 0 to 80 ng/µL, 0.5 mM GTP
[19] = GII ProPol 35 nM, poly(C) 0 to 80 ng/µL, 0.5 mM GTP
[20] = poly(C) 0 to 80 ng/µL, 0.5 mM GTP
[21] = GII Pol 2 µM, poly(U) 0 to 160 ng/µL, 0.5 mM ATP, 20 min

Nc1ncnc2c1ncn2[C@@H]1O[C@H](COP(=O)(O)OP(=O)(O)OP(=O)(O)O)[C@@H](O)[C@H]1O [ATP]
Km [1, 14]: 484 µM
kcat ATP [1, 14]: 0.6 (0.5–0.7) s^−1
kcat ATP ([2]; GII Pol 2 µM, ATP 0 to 2000 µM, 80 ng/µL poly(U)): 0.3 (0.2–0.33) s^−1
Km ([2]; GII Pol 2 µM, ATP 0 to 2000 µM, 80 ng/µL poly(U), read-out: Km ATP): 416 µM

Nc1nc2c(ncn2[C@@H]2O[C@H](COP(=O)(O)OP(=O)(O)OP(=O)(O)O)[C@@H](O)[C@H]2O)c(=O)[nH]1 [GTP]
kcat GTP ([2]; GII Pol 35 nM, GTP 0 to 500 µM, 20 ng/µL poly(C)): 1.6 (1.40–1.96) s^−1
Km ([2]; GII Pol 35 nM, GTP 0 to 500 µM, 20 ng/µL poly(C), read-out: Km GTP): 80.3 µM
kcat GTP ([3]; GII ProPol 35 nM, GTP 0 to 500 µM, 20 ng/µL poly(C)): 0.78 (0.69–0.87) s^−1
Km ([3]; GII ProPol 35 nM, GTP 0 to 500 µM, 20 ng/µL poly(C), read-out: Km GTP): 25.3 µM
Km [4, 15]: 150 µM
kcat GTP [4, 15]: 1.7 (1.47–1.96) s^−1
Km [5, 15]: 91.5 µM
kcat GTP [5, 15]: 0.24 s⁻¹

Nc1ncnc2c([C@@H]3N[C@H](COP(=O)(O)OP(=O)(O)OP(=O)(O)O)[C@@H](O)[C@H]3O)c[nH]c12 [Gal-TP, galidesivir triphosphate]
IC50 ([6]; GII Pol 2 µM, 8 ng/µL poly(U) template, 400 µM ATP): 154 µM
IC50 [7]: 247 µM
fold difference between the IC50 values (GII ProPol vs GII Pol) ([7]; poly(U) template): 1.6 fold
protease activity in the presence of inhibitor [8]: did not affect protease activity to a level of significance
protease activity in the presence of inhibitor ([9]; 30 µM inhibitor): observable decrease in ProPol activity
protease activity in the presence of inhibitor ([9]; normalized to 0-µM inhibitor control): did not affect protease activity to a level of significance

O=C(Nc1cccc(C(=O)Nc2ccc(S(=O)(=O)O)c3cc(S(=O)(=O)O)cc(S(=O)(=O)O)c23)c1)Nc1cccc(C(=O)Nc2ccc(S(=O)(=O)O)c3cc(S(=O)(=O)O)cc(S(=O)(=O)O)c23)c1 [NF023, 8,8′-[carbonylbis(imino-3,1-phenylenecarbonylimino)]bis-1,3,5-naphthalene-trisulphonic acid]
protease activity in the presence of inhibitor [8]: not affected

O=C[C@H](C[C@@H]1CCNC1=O)NC(=O)[C@H](CC1CCCCC1)NC(=O)c1cc2ccccc2[nH]1 [NV-004]
IC50 [10]: 0.37 µM
polymerase activity in the presence of inhibitor [6, 16]: no decrease in polymerase activity
remaining activity at 30 µM ([7]; read-out: polymerase activity compared with 0-µM control): 76%
polymerase activity in the presence of inhibitor [11, 16]: no decrease in polymerase activity

Cc1nc(/N=N/c2cc(S(=O)(=O)O)c3cc([N+](=O)[O-])cc(S(=O)(=O)O)c3c2)c(COP(=O)(O)O)c(C=O)c1O [PPNDS, pyridoxal‐5′‐phosphate‐6‐(2′‐naphthylazo‐6′‐nitro‐4′,8′‐disulfonate) tetrasodium salt]
IC50 [6]: 0.5 µM
IC50 [12]: 6.8 µM
IC50 [7]: 3.8 µM
IC50 [13]: 0.45 to 1.5 µM
IC50 ([11]; GI Pol 75 nM, 6 ng/µL poly(C) template, 150 µM GTP): 3.4 µM

O=c1ccn([C@@H]2O[C@H](COP(=O)(O)OP(=O)(O)OP(=O)(O)O)[C@@H](O)[C@H]2O)c(=O)[nH]1 [UTP]
kcat UTP ([3]; GII ProPol 2 µM, nucleotide 0 to 2000 µM, 20 ng/µL poly(A), 60 min): 0.36 (0.32–0.41) s^−1
Km ([3]; GII ProPol 2 µM, nucleotide 0 to 2000 µM, 20 ng/µL poly(A), 60 min, read-out: Km UTP): 438 µM

poly(A)
Km poly(A) [3, 17]: 23.6 (19.0–29.3)^a ng/μL
kcat poly(A) [3, 17]: 0.42 (0.39–0.45) s^−1

poly(C)
Km poly(C) [2, 18]: 8.8 (6.9–11.3) ng/μL
kcat poly(C) [2, 18]: 1.4 (1.3–1.5) s^−1
Km poly(C) [3, 19]: 5.9 (4.7–7.3) ng/μL
kcat poly(C) [3, 19]: 1.1 (1.0–1.2) s^−1
Km poly(C) [4, 20]: 6.5 (5.2–8.0) ng/μL
kcat poly(C) [4, 20]: 1.4 (1.3–1.6) s^−1
Km poly(C) ([5]; poly(C) 0 to 80 ng/µL, 0.5 mM GTP, 10 min 37°C): 15.6 (12.0–20.2)^a ng/μL
kcat poly(C) [5, 20]: 0.4 (0.35–0.42) s^−1

poly(U)
Km as estimated by half Vmax ([1]; GII ProPol with poly(U), allosteric sigmoidal model): 6.8 ng/µL
Km poly(U) [2, 21]: 29.6 (19.7–45.0) ng/μL
kcat poly(U) [2, 21]: 1.4 (1.2–1.7) s^−1
kcat poly(U) ([3]; GII ProPol 1 µM, poly(U) 0 to 160 ng/µL, 0.5 mM ATP, 20 min): 1.9 (1.6–2.2) s^−1
Km poly(U) ([3]; GII ProPol 1 µM, poly(U) 0 to 160 ng/µL, 0.5 mM ATP, 20 min, Michaelis-Menten): 7.9 (4.7–13.2)^a ng/μL
